According to patent US20170136031A1, “PLATINUM COMPLEXES AS ANTICANCER AGENTS” (KING FAHD UNIVERSITY OF PETROLEUM AND MINERALS, priority 2014, published 2017):

Legend:
Assay type in all cases: cell-based
[1] = test system: A549 (human lung carcinoma) cell line; test: In vitro cytotoxicity against A549 cell line; conditions: from curves of complex concentration vs percentage viability
[2] = test system: MCF7 (human breast cancer) cell line; test: In vitro cytotoxicity against MCF7 cell line; conditions: from curves of complex concentration vs percentage viability
[3] = test system: HCT15 (human colon adenocarcinoma) cell line; test: In vitro cytotoxicity against HCT15 cell line; conditions: from curves of complex concentration vs percentage viability
[4] = test system: HeLa (human cervical cancer) cell line; test: In vitro cytotoxicity against HeLa cell line; conditions: read-out: IC50 values against HeLa cell line (unit inferred)

N.N.[Cl][Pt][Cl] [Cisplatin, cisplatin]
IC50 [1]: 41.6 µM
IC50 [2]: 22.4 µM
IC50 [3]: 29.5 µM
IC50 [4]: 19.4 µM
